In patent US6906198B1, “Antipicornaviral compounds, their preparation and use” (Agouron Pharmaceuticals, Inc., priority 1998, dated 2005):
Where two headings read alike, the source gives them in different places. One block for each compound: values may come before it.

Columns and labels:
HRV serotype 1A = assay: Antirhinoviral H1-HeLa cell culture assay (XTT), HRV-1A; assay type: cell-based, human rhinovirus; conditions: H1-HeLa cells
Experimental: (§1) Antirhinoviral H1-HeLa Cell Culture Assay
(§2) In this cell protection assay, the ability of compounds to protect cells against HRV infection was measured by the XTT dye reduction method, which is described in Weislow et al., J. Natl. Cancer Inst. 1989, vol. 81, 577-586.
(§3) H1-HeLa cells were infected with HRV-14 at a multiplicity of infection (m.o.i.) of 0.13 (virus particles/cell) or mock-infected with medium only. Infected or mock-infected cells were resuspended at 8×10^5 cells per mL, and incubated with appropriate concentrations of the compounds to be tested. Two days later, XTT/PMS was added to test plates and the amount of formazan produced was quantified spectrophotometrically at 450/650 nm. The EC50 value was calculated as the concentration of compound that increased the percentage of formazan production in compound-treated, virus-infected cells to 50% of that produced by compound-free, mock-infected cells. The 50% cytotoxic dose (CC50) was calculated as the concentration of compound that decreased the percentage of formazan produced in compound-treated, mock-infected cells to 50% of that produced by compound-free, mock-infected cells. The therapeutic index (TI) was calculated by dividing the CC50 value by the EC50 value.
(§4) All strains of human rhinovirus (HRV) for use in this assay were purchased from American Type Culture Collection (ATCC), except for HRV serotype-14 (produced from the infectious cDNA clone constructed by Dr. Robert Rueckert, Institute for Molecular Virology, University of Wisconsin, Madison, Wis.). HRV stocks were propagated and viral assays were performed in H1-HeLa cells (ATCC). Cells were grown in minimal essential medium with 10% fetal bovine serum, available from Life Technologies (Gaithersburg, Md.).
(§5) The compounds were tested against control compounds WIN 51711, WIN 52084, and WIN 54954 (obtained from Sterling-Winthrop Pharmaceuticals), Pirodavir (obtained from Janssen Pharmaceuticals), and Pleconaril (prepared according to the method described in Diana et al., J. Med. Chem 1995, vol. 38, 1355). […]

HRV-14 = assay: Antirhinoviral H1-HeLa cell culture assay (XTT), HRV-14; assay type: cell-based, human rhinovirus
Experimental: as §1, §2, §3, §4
The compounds were tested against control compounds WIN 51711, WIN 52084, and WIN 54954 (obtained from Sterling-Winthrop Pharmaceuticals), Pirodavir (obtained from Janssen Pharmaceuticals), and Pleconaril (prepared according to the method described in Diana et al., J. Med. Chem 1995, vol. 38, 1355). Antiviral data obtained for the test compounds are shown in Tables 1 and 3, where all data are for HRV serotype-14 unless otherwise noted in parentheses.

HRV serotype 10 = assay: Antirhinoviral H1-HeLa cell culture assay (XTT), HRV-10; assay type: cell-based, human rhinovirus; conditions: H1-HeLa cells
Experimental: as §1, §2, §3, §4, §5

H1-HeLa cells = assay: Cytotoxicity in mock-infected H1-HeLa cells (antirhinoviral assay, XTT); assay type: cell-based; conditions: 50% cytotoxic dose
Experimental: as §3, §4

[1] = as above; assay type: cell-based; conditions: human, 50% cytotoxic dose
Experimental: as §3, §4

[2] = Cytotoxicity in uninfected MRC-5 cells (anti-echoviral/-enteroviral assay, XTT); assay type: cell-based; conditions: human, 50% cytotoxic dose
Experimental: Echovirus type 11 (EV 11) and enterovirus type 70 (EV 70) were purchased from ATCC (Rockville, Md.). Virus stocks were propagated and antiviral assays were performed in MRC-5 cells (ATCC). Cells were grown in minimal essential medium with 10% fetal bovine serum (Life Technologies, Gaithersburg, Md.).
The ability of compounds to protect cells against either EV 11 or EV 70 infection was measured by the XTT dye reduction method (Weislow et al., J. Natl. Cancer Inst. 1989, vol. 81, 577-586). MRC-5 cells were infected with EV 11 or EV 70 at an m.o.i. of 0.003 or 0.004, respectively, or mock-infected with medium only. Infected or uninfected cells were added at 1×10^4 cells per well and incubated with appropriate concentrations of compound. Four days later, XTT/PMS was added to test plates, and the amount of formazan produced was quantified spectrophotometrically at 450/650 nm. The EC50 was calculated as the concentration of compound that increased the formazan production in compound-treated, virus-infected cells to 50% of that produced by compound-free, uninfected cells. The 50% cytotoxic dose (CC50) was calculated as the concentration of compound that decreased formazan production in compound-treated, uninfected cells to 50% of that produced in compound-free, uninfected cells. The therapeutic index (TI) was calculated by dividing the CC50 by the EC50.

[3] = Cytotoxicity in uninfected H1-HeLa cells (anticoxsackieviral assay, XTT); assay type: cell-based; conditions: human; 50% cytotoxic dose, uninfected H1-HeLa cells (Table 4)
Experimental: Coxsackievirus types A-21 (CAV-21) and B3 (CVB-3) were purchased from American Type Culture Collection (ATCC, Rockville, Md.). Virus stocks were propagated and antiviral assays were performed in H1-HeLa cells (ATCC). Cells were grown in minimal essential medium with 10% fetal bovine serum (Life Technologies, Gaithersburg, Md.).
The ability of compounds to protect cells against either CAV-21 or CVB-3 infection was measured by the XTT dye reduction method. This method is described in Weislow et al., J. Natl. Cancer Inst. 1989, vol. 81, 577-586. H1-HeLa cells were infected with CAV-21 or CVB-3 at a multiplicity of infection (m.o.i.) of 0.025 or 0.075, respectively, or mock-infected with medium only. H1-HeLa cells were plated at 4×10^4 cells per well in a 96-well plate and incubated with appropriate concentrations of the test compound. One day (CVB-3) or two days (CAV-21) later, XTT/PMS was added to test plates and the amount of formazan produced was quantified spectrophotometrically at 450/650 nm. The EC50 was calculated as the concentration of compound that increased the formazan production in compound-treated, virus-infected cells to 50% of that produced by compound-free, uninfected cells. The 50% cytotoxic dose (CC50) was calculated as the concentration of compound that decreased formazan production in compound-treated, uninfected cells to 50% of that produced in compound-free, uninfected cells. The therapeutic index (TI) was calculated by dividing the CC50 by the EC50.

HRV serotype 30 = assay: Antirhinoviral H1-HeLa cell culture assay (XTT), HRV-30; assay type: cell-based; conditions: Human rhinovirus sp., H1-HeLa cells
Experimental: as §1, §2
as §3, with “value. […]” for “value.”

HRV serotype 38 = assay: Antirhinoviral H1-HeLa cell culture assay (XTT), HRV-38; assay type: cell-based; conditions: Human rhinovirus sp., H1-HeLa cells
Experimental: as §1, §2
as §3, with “value. […]” for “value.”

HRV serotype 87 = assay: Antirhinoviral H1-HeLa cell culture assay (XTT), HRV-87; assay type: cell-based; conditions: Human rhinovirus sp., H1-HeLa cells
Experimental: as §1, §2
as §3, with “value. […]” for “value.”

HRV serotype 25 = assay: Antirhinoviral H1-HeLa cell culture assay (XTT), HRV-25; assay type: cell-based; conditions: Human rhinovirus sp., H1-HeLa cells
Experimental: as §1, §2
as §3, with “value. […]” for “value.”

HRV serotype 12 = assay: Antirhinoviral H1-HeLa cell culture assay (XTT), HRV-12; assay type: cell-based; conditions: Human rhinovirus sp., H1-HeLa cells
Experimental: as §1, §2
as §3, with “value. […]” for “value.”

[4] = HRV serotype-14, H1-HeLa cells (Table 1), read-out: Cell Protection EC50
[5] = HRV serotype-14, H1-HeLa cells (Table 3), read-out: EC50

SMILES: CCOC(=O)/C=C/[C@H](CCC(N)=O)NC(=O)[C@H](Cc1ccc(C)cc1)NC(=O)[C@@H](NC(=O)C1SCCS1)C(C)(C)C [(A-15)]
EC50 (HRV serotype 1A): 7100 nM | EC50 (HRV-14; [4]): 220 nM | EC50 (HRV-14; [5]): 220 nM | EC50 (HRV serotype 10): 2700 nM

SMILES: Cc1cc(CCCCCCCOc2ccc(C3=N[C@@H](C)CO3)cc2)on1 [WIN 52084, reference compound]
CC50 (H1-HeLa cells): > 10000 nM | EC50 (HRV-14; [5]): 70 nM

SMILES: CCOC(=O)c1ccc(OCCC2CCN(c3ccc(C)nn3)CC2)cc1 [Pirodavir, reference compound]
CC50 at 2 days [1]: > 10000 nM | CC50 at 4 days [2]: > 10000 nM | CC50 [3]: > 100000 nM

Second part, led by results:

EC50 (HRV serotype 1A): 4800 nM | EC50 (HRV-14; [4]): 450 nM | EC50 (HRV-14; [5]): 450 nM | EC50 (HRV serotype 10): 4500 nM
SMILES: CCOC(=O)/C=C/[C@H](CCC(N)=O)NC(=O)[C@H](Cc1ccc(C)cc1)NC(=O)[C@@H](NC(=O)c1ccc[nH]1)C(C)(C)C [(A-16)]

EC50 (HRV serotype 30): 90 nM | EC50 (HRV serotype 38): 170 nM | EC50 (HRV serotype 87): 590 nM | EC50 (HRV serotype 25): 200 nM | EC50 (HRV serotype 12): 70 nM
SMILES: CCOC(=O)/C=C/[C@H](C[C@@H]1CCNC1=O)NC(=O)[C@H](Cc1ccc(F)cc1)NC(=O)[C@@H](NC(=O)c1cc(C)on1)C(C)(C)C [(A-7), Ethyl-3-{(5′-Methylisoxazole-3′-carbonyl)-L-α-(t-Butyl-Gly)-L-(4-F-Phe)-L-((S)-Pyrrol-Ala)}-E-Propenoate]
CC50 at 2 days [1]: > 10000 nM
